This note sets out measurements from publication PMC6934663, “Genomic and functional gene studies suggest a key role of beta-carotene oxygenase 1 like (bco1l) gene in salmon flesh color” (Scientific Reports, 2019).

The assay addresses T1, Bco1l (Salmo salar, UniProt A0A1S2X8G0).
T1 construct: the ssa11 copy is truncated), expressed in carotenoid-producing E. coli XL1-Blue, 528 aa
T1 sequence (A0A1S2X8G0 1-528): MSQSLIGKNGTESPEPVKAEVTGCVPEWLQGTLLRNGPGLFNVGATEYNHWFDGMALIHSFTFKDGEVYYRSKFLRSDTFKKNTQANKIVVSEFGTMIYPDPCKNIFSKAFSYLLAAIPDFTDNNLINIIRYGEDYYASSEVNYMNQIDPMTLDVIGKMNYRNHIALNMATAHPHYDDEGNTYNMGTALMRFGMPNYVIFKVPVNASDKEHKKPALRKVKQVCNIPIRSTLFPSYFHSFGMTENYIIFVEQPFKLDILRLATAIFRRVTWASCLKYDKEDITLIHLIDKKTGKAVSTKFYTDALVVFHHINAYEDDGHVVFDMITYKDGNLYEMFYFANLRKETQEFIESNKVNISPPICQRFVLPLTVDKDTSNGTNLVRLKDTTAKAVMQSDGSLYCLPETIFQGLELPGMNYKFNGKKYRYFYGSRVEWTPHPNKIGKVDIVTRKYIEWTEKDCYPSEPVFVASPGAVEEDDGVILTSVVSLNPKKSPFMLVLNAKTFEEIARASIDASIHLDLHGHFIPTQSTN
In words: HPLC of cleavage products in beta-carotene-producing E. coli. It counts as cell-based. The note with it: E. coli co-expression, IPTG 0.2 mM, 16 h at 25 °C in darkness; 15,15' oxidative cleavage.

`CC1=C(/C=C/C(C)=C/C=C/C(C)=C/C=C/C=C(C)/C=C/C=C(C)/C=C/C2=C(C)CCCC2(C)C)C(C)(C)CCC1` [beta-carotene]: the “HPLC of cleavage products in beta-carotene-producing E. coli” value is on record as “The results showed that Bco1l cleaved beta-carotene (Fig. 6A)”.
